From ChEMBL document CHEMBL3046132, “Design and synthesis of thienopyridines as novel templates for acetylcholinesterase inhibitors” (2013)

What follows are compounds tested on Rattus norvegicus (assay: In vivo inhibition of AchE in Wistar albino Rattus norvegicus (rat) brain at 10 mg/kg, po after 30 min relative to untreated control). Settings: 0.5 h.
Format: functional
In the case of `Cc1sc2nc3c(c(NCCCNc4c5c(nc6sc(C)c(C)c46)CCCC5)c2c1C)CCCC3`, the inhibition in vivo at 10 mg/kg is reported as 25.1%. With `Cc1sc2nc3c(c(NCCCCNc4c5c(nc6sc(C)c(C)c46)CCCC5)c2c1C)CCCC3` the inhibition in vivo at 10 mg/kg was 41.5%. Work on `C(CCNc1c2c(nc3sc4c(c13)CCCC4)CCCC2)CNc1c2c(nc3sc4c(c13)CCCC4)CCCC2` yielded an inhibition in vivo at 10 mg/kg of 35.7%. For `Cc1sc2nc3c(c(NCCCN4C(=O)c5ccccc5C4=O)c2c1C)CCCC3`, the inhibition in vivo at 10 mg/kg was 46.2%. In the case of `Cc1sc2nc3c(c(NCCCCN4C(=O)c5ccccc5C4=O)c2c1C)CCCC3`, the inhibition in vivo at 10 mg/kg is reported as 55.6%. With `O=C1c2ccccc2C(=O)N1CCCNc1c2c(nc3sc4c(c13)CCCC4)CCCC2` the inhibition in vivo at 10 mg/kg was 42.7%. `O=C1c2ccccc2C(=O)N1CCCCNc1c2c(nc3sc4c(c13)CCCC4)CCCC2` showed an inhibition in vivo at 10 mg/kg of 29.8%. Work on `O=C1c2ccccc2C(=O)N1CCNCCCNc1c2c(nc3sc4c(c13)CCCC4)CCCC2` yielded an inhibition in vivo at 10 mg/kg of 43.9%. `O=C1c2ccccc2C(=O)N1CCNCCCCNc1c2c(nc3sc4c(c13)CCCC4)CCCC2` was tested, and the inhibition in vivo at 10 mg/kg was 45%. For `Cc1sc2nc3c(c(NCCCCNC(=O)CCCCC4CCSS4)c2c1C)CCCC3` (stereo not drawn), the inhibition in vivo at 10 mg/kg was 42.9%. With `O=C(CCCCC1CCSS1)NCCCNc1c2c(nc3sc4c(c13)CCCC4)CCCC2` (stereo not drawn) the inhibition in vivo at 10 mg/kg was 56.7%. `O=C(CCCCC1CCSS1)NCCCCNc1c2c(nc3sc4c(c13)CCCC4)CCCC2` (stereo not drawn) was tested, and the inhibition in vivo at 10 mg/kg was 21.4%. In the case of `Nc1c2c(nc3ccccc13)CCCC2` [TACRINE], the inhibition in vivo at 10 mg/kg is reported as 54.9%.
